# According to US20240228925A1, “APPARATUS AND METHOD FOR A […] ALVEOLAR LUNG-ON-A-CHIP MODEL” (priority 2021, published 2024):
# Tested on: SARS-COV-2 pseudoviral particle (pCoV-VP)
# Format: cell-based
row,Compound,decrease of cytopathic effects of pCoV-VPs (MTS assay)
1,CCC(CC)COC(=O)[C@H](C)N[P@](=O)(OC[C@H]1O[C@@](C#N)(c2ccc3c(N)ncnn23)[C@H](O)[C@@H]1O)Oc1ccccc1 [remdesivir],~30.0%
2,CCN(CCO)CCCC(C)Nc1ccnc2cc(Cl)ccc12 (stereo not drawn) [hydroxychloroquine],~11.3%
3,CCN(CC)Cc1cc(Nc2ccnc3cc(Cl)ccc23)ccc1O [amodiaquine],approximately 21.4%
